The source made the active and inactive calls. The rule behind the calls is not given here.
Experiments:
[1] = molecular target: T1, Adenosine receptor A1 (Homo sapiens, UniProt P30542); assay: Displacement of [3H]-CCPA from human recombinant adenosine A1 receptor transfected in CHO cells; assay type: cell-based
T1 sequence (P30542 whole entry): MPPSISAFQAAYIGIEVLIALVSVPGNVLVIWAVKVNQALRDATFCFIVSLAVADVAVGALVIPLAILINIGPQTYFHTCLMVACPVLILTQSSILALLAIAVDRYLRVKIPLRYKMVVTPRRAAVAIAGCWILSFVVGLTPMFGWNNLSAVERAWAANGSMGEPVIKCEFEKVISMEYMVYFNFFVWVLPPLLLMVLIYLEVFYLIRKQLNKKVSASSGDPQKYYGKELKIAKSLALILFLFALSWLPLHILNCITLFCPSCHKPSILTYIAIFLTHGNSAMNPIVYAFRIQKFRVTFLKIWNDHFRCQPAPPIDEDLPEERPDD

[2] = molecular target: T2, Adenosine receptor A2a (Homo sapiens, UniProt P29274); assay: Displacement of [3H]-NECA from human recombinant adenosine A2A receptor transfected in CHO cells; assay type: cell-based
T2 sequence (P29274 whole entry): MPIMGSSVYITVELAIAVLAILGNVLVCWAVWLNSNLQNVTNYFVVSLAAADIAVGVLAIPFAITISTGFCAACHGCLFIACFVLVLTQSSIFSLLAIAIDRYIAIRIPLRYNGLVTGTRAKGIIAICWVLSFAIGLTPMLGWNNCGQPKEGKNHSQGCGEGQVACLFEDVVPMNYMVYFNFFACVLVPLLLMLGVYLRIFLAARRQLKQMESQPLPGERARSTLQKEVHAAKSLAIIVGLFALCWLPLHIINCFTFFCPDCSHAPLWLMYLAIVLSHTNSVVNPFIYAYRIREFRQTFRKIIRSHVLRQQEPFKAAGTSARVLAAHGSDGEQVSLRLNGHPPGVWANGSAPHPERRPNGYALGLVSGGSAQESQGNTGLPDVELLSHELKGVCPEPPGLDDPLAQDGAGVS

[3] = molecular target: T3, Adenosine receptor A3 (Homo sapiens, UniProt P0DMS8); assay: Displacement of [3H]-HEMADO from human recombinant adenosine A3 receptor transfected in CHO cells; assay type: cell-based
T3 sequence (P0DMS8 whole entry): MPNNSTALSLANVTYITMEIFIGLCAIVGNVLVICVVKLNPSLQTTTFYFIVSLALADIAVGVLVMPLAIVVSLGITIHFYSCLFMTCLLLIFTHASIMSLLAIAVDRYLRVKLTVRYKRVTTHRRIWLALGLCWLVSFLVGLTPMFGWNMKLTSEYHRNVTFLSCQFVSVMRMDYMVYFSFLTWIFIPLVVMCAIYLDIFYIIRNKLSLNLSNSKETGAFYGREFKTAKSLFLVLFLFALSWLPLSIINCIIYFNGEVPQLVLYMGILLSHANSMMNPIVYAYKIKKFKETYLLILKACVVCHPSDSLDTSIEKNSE

[4] = molecular target: T4, Adenosine receptor A1 (Homo sapiens) (UniProt P30542); assay: (§1) Agonist activity at human recombinant adenosine A1 receptor transfected in CHO cells assessed as inhibition of forskolin-induced adenylyl cyclase activity; assay type: functional, cell-based
T4 sequence (whole entry): T1 sequence (P30542 whole entry)

[5] = molecular target: T1, Adenosine receptor A1; assay: as §1; assay type: functional, cell-based
[6] = molecular target: T2, Adenosine receptor A2a; assay: Agonist activity at human recombinant adenosine A2A receptor transfected in CHO cells assessed as induction of adenylyl cyclase activity; assay type: functional, cell-based
[7] = molecular target: T5, Adenosine receptor A2b (Homo sapiens) (UniProt P29275); assay: (§2) Agonist activity at human recombinant adenosine A2B receptor transfected in CHO cells assessed as induction of adenylyl cyclase activity; assay type: functional, cell-based
T5 sequence (whole entry): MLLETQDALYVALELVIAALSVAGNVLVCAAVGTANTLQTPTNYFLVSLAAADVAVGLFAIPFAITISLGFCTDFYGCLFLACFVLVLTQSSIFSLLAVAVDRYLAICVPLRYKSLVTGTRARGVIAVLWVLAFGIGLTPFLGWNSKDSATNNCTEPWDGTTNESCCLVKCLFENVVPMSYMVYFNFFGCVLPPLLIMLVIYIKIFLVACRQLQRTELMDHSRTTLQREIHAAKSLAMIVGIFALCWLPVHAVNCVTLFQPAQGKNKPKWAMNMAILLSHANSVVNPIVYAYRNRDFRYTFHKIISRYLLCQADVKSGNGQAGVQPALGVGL

[8] = molecular target: T6, Adenosine receptor A2b (Homo sapiens, UniProt P29275); assay: as §2; assay type: functional, cell-based
T6 sequence (P29275 whole entry): T5 sequence (whole entry)

[9] = molecular target: T3, Adenosine receptor A3; assay: Antagonist activity at human recombinant adenosine A3 receptor transfected in CHO cells assessed as reversal of NECA-induced inhibition of forskolin-induced adenylyl cyclase activity; assay type: functional, cell-based

Structure (SMILES) | Ki [1] [nM] | Ki [2] [nM] | Ki [3] [nM] | Efficacy [4] [%] | EC50 [5] [nM] | EC50 [6] [nM] | Efficacy [6] [%] | Efficacy [7] [%] | EC50 [8] [nM] | EC50 [9] [nM] | inhibition [4]
CCn1nnc([C@H]2O[C@@H](n3cnc4c(NC5CCCO5)ncnc43)[C@H](O)[C@@H]2O)n1 (stereo partly specified) | 1.23 | 554 | 15.4 | > 90 | 8.74 | 25.1 | > 90 | > 90 | 1340 | 61.9 | –
OC[C@H]1O[C@@H](n2cnc3c(NC4CCCC4)nc(Cl)nc32)[C@H](O)[C@@H]1O | – | – | – | – | – | – | – | – | – | – | Active
CCn1nnc([C@H]2O[C@@H](n3cnc4c(N[C@H]5C[C@@H]6CC[C@@H]5C6)ncnc43)[C@H](O)[C@@H]2O)n1 (racemic) | 0.453 | 64.5 | 8.85 | > 90 | 4.66 | 7.71 | > 90 | > 90 | 1010 | 83.9 | –
CCn1nnc([C@H]2O[C@@H](n3cnc4c(NC)ncnc43)[C@H](O)[C@@H]2O)n1 | 3.56 | 778 | 0.478 | > 90 | 97.2 | 1710 | > 90 | > 90 | 1480 | 6.38 | –
CCn1nnc([C@H]2O[C@@H](n3cnc4c(Nc5ccc(Cl)cc5F)ncnc43)[C@H](O)[C@@H]2O)n1 | 0.432 | 77.5 | 2.61 | > 90 | 10.2 | 8.4 | > 90 | > 90 | 530 | 33.9 | –
CCn1nnc([C@H]2O[C@@H](n3cnc4c(NC5CC5)ncnc43)[C@H](O)[C@@H]2O)n1 | 0.682 | 93 | 7.97 | > 90 | 8.61 | 9.75 | > 90 | > 90 | 675 | 51.5 | –
CCn1nnc([C@H]2O[C@@H](n3cnc4c(NC5CC5)nc(Cl)nc43)[C@H](O)[C@@H]2O)n1 | 0.311 | 62.2 | 3.9 | > 90 | 3.62 | 5.31 | > 90 | > 90 | 1150 | 39.5 | –
